These are literature values, as cited in US5431925A, “Nutritive composition for prevention and therapy of infection diseases caused by immunosuppression” (Snow Brand Milk Products Co., Ltd., priority 1991, dated 1995).

The conditions of the data set: mouse.

Structures are written as SMILES. Some results are limits rather than exact numbers.

Consider `CC1=C(/C=C/C(C)=C/C=C/C(C)=C/CO)C(C)(C)CCC1` [retinol], for which the LD50 is recorded as ≥ 4,100 mg/kg. With `CC1=C(/C=C/C(C)=C/C=C/C(C)=C/C(=O)O)C(C)(C)CCC1` [retinoic acid], the LD50 is listed as ≥ 4,000 mg/kg.
